Measurements from the CheMixHub viscosity set.

Experiment: xn = mol fraction of the nth substance listed

COC(C)(C)C + Cc1ccccc1
298.15 K, 101 kPa
Details | viscosity [mPa·s]
x1 = 0.05 | 0.541
x1 = 0.1 | 0.528
x1 = 0.2001 | 0.505
x1 = 0.3002 | 0.479
x1 = 0.4001 | 0.458
x1 = 0.5001 | 0.438
x1 = 0.6001 | 0.419
x1 = 0.6998 | 0.398
x1 = 0.8 | 0.383
x1 = 0.8999 | 0.372
x1 = 0.9502 | 0.365

Clc1ccccc1 + CCCCCO
293.15 K, 101.33 kPa
Details | viscosity [mPa·s]
x2 = 0.0511 | 0.816
x2 = 0.1017 | 0.852
x2 = 0.1449 | 0.892
x2 = 0.198 | 0.936
x2 = 0.2665 | 1.017
x2 = 0.3688 | 1.195
x2 = 0.4687 | 1.387
x2 = 0.5602 | 1.637
x2 = 0.5789 | 1.697
x2 = 0.7339 | 2.339
x2 = 0.8618 | 3.062
x2 = 0.9524 | 3.666

CCc1ccccc1 + Cc1ccccc1
Details | viscosity [mPa·s]
293.15 K, 101.33 kPa, x2 = 0.1809 | 0.652
293.15 K, 101.33 kPa, x2 = 0.3695 | 0.636
293.15 K, 101.33 kPa, x2 = 0.5187 | 0.623
293.15 K, 101.33 kPa, x2 = 0.6606 | 0.611
293.15 K, 101.33 kPa, x2 = 0.8474 | 0.597
298 K, 101 kPa, x2 = 0.1175 | 0.6248
298 K, 101 kPa, x2 = 0.2654 | 0.6174
298 K, 101 kPa, x2 = 0.4661 | 0.6001
298 K, 101 kPa, x2 = 0.5586 | 0.5944
298 K, 101 kPa, x2 = 0.6327 | 0.5864
298 K, 101 kPa, x2 = 0.8164 | 0.5675
298 K, 101 kPa, x2 = 0.9082 | 0.5576
298 K, 101 kPa, x2 = 0.9658 | 0.5598
298.15 K, 101.3 kPa, x2 = 0.1427 | 0.6196
298.15 K, 101.3 kPa, x2 = 0.2444 | 0.609
298.15 K, 101.3 kPa, x2 = 0.3777 | 0.5992
298.15 K, 101.3 kPa, x2 = 0.4928 | 0.5905
298.15 K, 101.3 kPa, x2 = 0.5425 | 0.5867
298.15 K, 101.3 kPa, x2 = 0.6355 | 0.5789
298.15 K, 101.3 kPa, x2 = 0.7353 | 0.5716
298.15 K, 101.3 kPa, x2 = 0.8573 | 0.5614
298.15 K, 101.3 kPa, x2 = 0.9453 | 0.5549
298.15 K, 101.33 kPa, x2 = 0.1308 | 0.623
298.15 K, 101.33 kPa, x2 = 0.2529 | 0.616
298.15 K, 101.33 kPa, x2 = 0.3685 | 0.604
298.15 K, 101.33 kPa, x2 = 0.4784 | 0.592
298.15 K, 101.33 kPa, x2 = 0.6663 | 0.58
298.15 K, 101.33 kPa, x2 = 0.8024 | 0.568
298.15 K, 101.33 kPa, x2 = 0.9209 | 0.56
303.15 K, 101.3 kPa, x2 = 0.0366 | 0.5902
303.15 K, 101.3 kPa, x2 = 0.1427 | 0.5808
303.15 K, 101.3 kPa, x2 = 0.2444 | 0.5729
303.15 K, 101.3 kPa, x2 = 0.3777 | 0.5639
303.15 K, 101.3 kPa, x2 = 0.4928 | 0.5556
303.15 K, 101.3 kPa, x2 = 0.5425 | 0.5522
303.15 K, 101.3 kPa, x2 = 0.6355 | 0.545
303.15 K, 101.3 kPa, x2 = 0.7353 | 0.5371
303.15 K, 101.3 kPa, x2 = 0.8573 | 0.528
303.15 K, 101.3 kPa, x2 = 0.9453 | 0.5223
303.15 K, 101.33 kPa, x2 = 0.1809 | 0.581
303.15 K, 101.33 kPa, x2 = 0.3695 | 0.565
303.15 K, 101.33 kPa, x2 = 0.5187 | 0.554
303.15 K, 101.33 kPa, x2 = 0.6606 | 0.546
303.15 K, 101.33 kPa, x2 = 0.8474 | 0.533
313.15 K, 101.33 kPa, x2 = 0.1809 | 0.52
313.15 K, 101.33 kPa, x2 = 0.3695 | 0.505
313.15 K, 101.33 kPa, x2 = 0.5187 | 0.496
313.15 K, 101.33 kPa, x2 = 0.6606 | 0.49
313.15 K, 101.33 kPa, x2 = 0.8474 | 0.479
323.15 K, 101.33 kPa, x2 = 0.1809 | 0.46
323.15 K, 101.33 kPa, x2 = 0.3695 | 0.459
323.15 K, 101.33 kPa, x2 = 0.5187 | 0.447
323.15 K, 101.33 kPa, x2 = 0.6606 | 0.443
323.15 K, 101.33 kPa, x2 = 0.8474 | 0.43

CCCCC(CC)CN (stereo unspecified) + COCCOCCOC
viscosity [mPa·s], 101.33 kPa
Details | x2 = 0.0967 | x2 = 0.194 | x2 = 0.292 | x2 = 0.391 | x2 = 0.491 | x2 = 0.591 | x2 = 0.692 | x2 = 0.794 | x2 = 0.897
303.2 K | 0.98 | 0.97 | 0.96 | 0.95 | 0.94 | 0.93 | 0.92 | 0.93 | 0.94
313.2 K | 0.86 | 0.85 | 0.84 | 0.82 | 0.81 | 0.8 | 0.79 | 0.8 | 0.81

C=CC(=O)OCC + CC#N
viscosity [mPa·s], 100 kPa
Details | 293.15 K | 298.15 K | 303.15 K | 308.15 K | 313.15 K | 318.15 K
x2 = 0.0611 | 0.5524 | 0.5177 | 0.4854 | 0.4506 | 0.4107 | 0.3704
x2 = 0.1197 | 0.5374 | 0.5035 | 0.472 | 0.4383 | 0.3998 | 0.3611
x2 = 0.1852 | 0.5211 | 0.4883 | 0.4578 | 0.4254 | 0.3886 | 0.3517
x2 = 0.2385 | 0.5081 | 0.4762 | 0.4467 | 0.4154 | 0.3801 | 0.3447
x2 = 0.2966 | 0.4944 | 0.4633 | 0.4348 | 0.4048 | 0.3711 | 0.3374
x2 = 0.3675 | 0.4781 | 0.4483 | 0.421 | 0.3926 | 0.3609 | 0.3293
x2 = 0.436 | 0.4629 | 0.4343 | 0.4082 | 0.3812 | 0.3515 | 0.3219
x2 = 0.4982 | 0.4496 | 0.4221 | 0.3971 | 0.3714 | 0.3435 | 0.3157
x2 = 0.5745 | 0.4339 | 0.4078 | 0.3841 | 0.3601 | 0.3343 | 0.3087
x2 = 0.6519 | 0.4188 | 0.394 | 0.3717 | 0.3493 | 0.3257 | 0.3024
x2 = 0.725 | 0.4054 | 0.3819 | 0.3608 | 0.34 | 0.3185 | 0.2973
x2 = 0.8185 | 0.3896 | 0.3678 | 0.3484 | 0.3296 | 0.3108 | 0.2924
x2 = 0.9145 | 0.3751 | 0.3552 | 0.3378 | 0.3213 | 0.3054 | 0.2901

Clc1ccccc1 + OCCOCCOCCO
viscosity [mPa·s], 101 kPa
Details | 298.15 K | 308.15 K
x2 = 0.0473 | 0.941 | 0.808
x2 = 0.149 | 1.491 | 1.172
x2 = 0.2493 | 2.307 | 1.682
x2 = 0.3495 | 3.504 | 2.4
x2 = 0.439 | 5.014 | 3.283
x2 = 0.4734 | 5.733 | 3.699
x2 = 0.5509 | 7.695 | 4.829
x2 = 0.6512 | 11.09 | 6.787
x2 = 0.7493 | 15.58 | 9.422
x2 = 0.8483 | 21.58 | 13.05
x2 = 0.9428 | 28.99 | 17.74

COC(C)(C)C + CC(C)CC(C)(C)C
Details | viscosity [mPa·s]
298.15 K, 101.33 kPa, x1 = 0.125 | 0.4633
298.15 K, 101.33 kPa, x1 = 0.2442 | 0.4465
298.15 K, 101.33 kPa, x1 = 0.3612 | 0.4301
298.15 K, 101.33 kPa, x1 = 0.462 | 0.4159
298.15 K, 101.33 kPa, x1 = 0.5638 | 0.4012
298.15 K, 101.33 kPa, x1 = 0.6579 | 0.3878
298.15 K, 101.33 kPa, x1 = 0.7533 | 0.3739
298.15 K, 101.33 kPa, x1 = 0.8375 | 0.3611
298.15 K, 101.33 kPa, x1 = 0.9182 | 0.3483
303.15 K, 101 kPa, x1 = 0.1862 | 0.436
303.15 K, 101 kPa, x1 = 0.3104 | 0.423
303.15 K, 101 kPa, x1 = 0.3813 | 0.416
303.15 K, 101 kPa, x1 = 0.4961 | 0.404
303.15 K, 101 kPa, x1 = 0.6203 | 0.39
303.15 K, 101 kPa, x1 = 0.6609 | 0.386
303.15 K, 101 kPa, x1 = 0.8925 | 0.36
